Measured values: patent publication US5349127A, “Expression of herbicide metabolizing cytochromes P450” (priority 1992, dated 1994)

Columns and labels:
[1] = system: S. lividans pCAO200SU2-FeS-A#11; experiment: Sulfonylurea metabolism by washed cell suspension (Examples 11-12); assay type: in vitro ADME, Streptomyces lividans; settings: for concentration in supernatant: substrate 10010
[2] = system: Tomato seedlings (Lycopersicon esculentum cv. Pixie); experiment: Tomato transplants in herbicide-treated soil after bacterial pretreatments (Example 18); assay type: in vivo; settings: for Shoot Fresh Weight (mean of five plants): 22 days; for Shoot fresh weight in treatment C versus the other treatments: 32, 64 and 125 g ai/ha of 10001 or 16 and 32 g ai/ha of 10010
Method: One liter cultures of S. griseolus ATCC 11796, S. lividans pCAO200, S. lividans pCAO200-#9-SU1-FeS-B or S. lividans pCAO200-#12-SU1 were grown in YEME medium (sporulation broth for the S. griseolus culture) at 30° C. until the cultures were in late log phase of growth and the absorbance of each culture in a spectrophotometer at a wavelength of 600 nm was between 1.0 and 1.3. Tomato seedlings (Lycopersicon esculentum cv. "Pixie") were seeded directly into soiless media, Oasis Wedges® (Smithers-Oasis, Kent, Ohio), fertilized with 500 ppm Peter's® fertilizer (20:19:18); and 300 ppm of iron was added weekly. As the tomato plants develop, roots ramify through the Oasis Wedges®. The tomato plants were transplanted to pots when they were 4 inches tall as follows.
Five inch standard round pots (without holes) were filled with Sassafras sandy loam (ph 6.7, 0.8% OM) and a single Oasis cube and then treated preemergence with either Classic® (10001) 25 DF (16, 32, 64, 125 and 250 grams active ingredient/hectare [g ai/ha]) or Oust® (10010) 75 DF at rates of 4, 8, 16, 32 and 64 g ai/ha), both herbicides available from E. I. du Pont de Nemours and Company, Wilmington, Del. The oasis cube was then removed and replaced by a transplant tomato dipped in either the cultures described above of S. griseolus ATCC 11796 (treatment A), S. lividans pCAO200 (treatment B), S. lividans pCAO200-#9-SU1-FeS-B (treatment C), S. lividans pCAO200-#12-SU1 (treatment D) or into water (treatment E). Five transplants were tested for each treatment at each dosage rate. The pots were placed on a greenhouse bench for 22 days and watered twice daily, after which shoot fresh weights of treatments were determined. Roots of these treatments and controls were examined too. Plants, soil and pots treated with bacterial cultures were double bagged and disposed by incineration.

[3] = system: S. griseolus PH3809; experiment: Metabolism of 10001 by strains transformed with pCS325 (Example 15); assay type: in vitro ADME, Streptomyces griseolus; settings: substrate 10001
Method: S. griseolus PH2003, S. griseus PH4001, S. ambofaciens PH4002, and S. lividans JI1326 were transformed with the plasmid pPAT108. The transformed S. griseolus strain, PH3826, was cultured for 24 hours in 150 mls of sporulation broth with 5 ug/ml thiostrepton. The transformed S. griseus strain, PH3832, and the transformed S. ambofaciens strain, PH3834, were cultured for 24 hours in 150 mls of trypticase soy broth with 5 ug/ml thiostrepton. The transformed S. lividans strain, PH3822, was similarly cultured in 150 mls of YEME broth with 5 ug/ml thiostrepton. Three hours before harvesting the cells, 50 mls of fresh medium of the same type with 5 ug/ml thiostrepton was added to each culture. The cells from each of the cultures were harvested by centrifugation, washed twice with 50 mMMOPS, pH7.2 and resuspended in five cell volumes of MOPS containing 0.2% glucose and 120 ug/ml of the sulfonylurea 10001. The cell suspensions were incubated at 30° C. with shaking and aliquots were removed at 0.5, 1, 2 and 4 hours. The supernatant of each aliquot was analyzed by HPLC and the concentration of the sulfonylurea compound 10001 and its metabolites 10002 and 10003 were determined.
S. griseolus PH2003, S. griseus PH4001, S. ambofaciens PH4002, and S. lividans JI1326 were transformed with the plasmid pCS325. Cells of the transformed strains of S. griseolus PH3809, S. griseus PH3817, S. ambofaciens PH3818, and S. lividans PH3816, were grown and treated as described in Example 14, and the concentrations of the sulfonylurea compound 10001 and its metabolites 10002 and 10003 were determined.

[4] = system: S. lividans pCAO200SU1-FeS-B#9; experiment: Percent conversion of herbicides by cultures (Example 16); assay type: in vitro ADME, Streptomyces lividans; settings: 3.0 mg herbicide in 25 ml broth; 24 hours
Method: (§1) Separate cultures (50 ml) inoculated with S. lividans C37, S. lividans transformed with pCAO200SU1-FeS-B#9, S. griseolus ATCC11796, S. griseolus PH2003 transformed with pIJ425, or S. ariseolus PH2003 transformed with pCS325 were cultured in sporulation broth for 18 hours at 30° C. with shaking. Each culture was then resuspended in 25 ml fresh sporulation broth and 3.0 mg herbicide added. In the case of cultures of S. griseolus ATCC11796, a second culture containing herbicide and 3.0 mg 10001 was also prepared. Each culture was reincubated for 24 hours, then an aliquot of the medium was withdrawn and analyzed by HPLC. The percent conversion of herbicide was determined.

[5] = system: S. lividans C37; experiment: as above; assay type: in vitro ADME, Streptomyces lividans; settings: 3.0 mg herbicide in 25 ml broth; 24 hours
Method: as §1

[6] = 16 g ai/ha, Pretreatment A (Streptomyces griseolus ATCC11796)
[7] = 16 g ai/ha, Pretreatment B (Streptomyces lividans pCAO200)
[8] = 16 g ai/ha, Pretreatment C (S. lividans pCAO200#9SU1-FeS-B)
[9] = 16 g ai/ha, Pretreatment D (S. lividans pCAO200#12SU1)
[10] = 16 g ai/ha, Pretreatment E (water)
[11] = 32 g ai/ha, Pretreatment A (Streptomyces griseolus ATCC11796)
[12] = 32 g ai/ha, Pretreatment B (Streptomyces lividans pCAO200)
[13] = 32 g ai/ha, Pretreatment C (S. lividans pCAO200#9SU1-FeS-B)
[14] = 32 g ai/ha, Pretreatment D (S. lividans pCAO200#12SU1)
[15] = 32 g ai/ha, Pretreatment E (water)
[16] = 64 g ai/ha, Pretreatment A (Streptomyces griseolus ATCC11796)
[17] = 64 g ai/ha, Pretreatment B (Streptomyces lividans pCAO200)
[18] = 64 g ai/ha, Pretreatment C (S. lividans pCAO200#9SU1-FeS-B)
[19] = 64 g ai/ha, Pretreatment D (S. lividans pCAO200#12SU1)
[20] = 64 g ai/ha, Pretreatment E (water)

Structure (SMILES)	Shoot Fresh Weight (mean of five plants) [2, 6]	Shoot Fresh Weight (mean of five plants) [2, 7]	Shoot Fresh Weight (mean of five plants) [2, 8]	Shoot Fresh Weight (mean of five plants) [2, 9]	Shoot Fresh Weight (mean of five plants) [2, 10]	Shoot fresh weight in treatment C versus the other treatments [2]	Shoot Fresh Weight (mean of five plants) [2, 11]	Shoot Fresh Weight (mean of five plants) [2, 12]	Shoot Fresh Weight (mean of five plants) [2, 13]	Shoot Fresh Weight (mean of five plants) [2, 14]	Shoot Fresh Weight (mean of five plants) [2, 15]	Shoot Fresh Weight (mean of five plants) [2, 16]	Shoot Fresh Weight (mean of five plants) [2, 17]	Shoot Fresh Weight (mean of five plants) [2, 18]	Shoot Fresh Weight (mean of five plants) [2, 19]	Shoot Fresh Weight (mean of five plants) [2, 20]	concentration in supernatant ([3]; 0.5 h)	concentration in supernatant ([3]; 1.0 h)	concentration in supernatant ([3]; 2.0 h)	concentration in supernatant ([3]; 4.0 h)	further results
COC(=O)c1ccccc1S(=O)(=O)NC(=O)Nc1nc(C)cc(C)n1 [compound 10010, N-[(4,6-dimethylpyrimidin-2-yl)aminocarbonyl]-2-methoxycarbonylbenzenesulfonamide]	0.32 grams	0.65 grams	0.98 grams	0.56 grams	0.39 grams	2-3 times greater	0.33 grams	0.42 grams	1.01 grams	0.62 grams	0.28 grams	0.30 grams	0.39 grams	0.46 grams	0.29 grams	0.34 grams					concentration in supernatant ([1]; 2 h): 90 µM; concentration in supernatant ([1]; 4 h): 84 µM; concentration in supernatant ([1]; 6 h): 72 µM; metabolism compared with uninduced S. griseolus PH2001 ([1]; summary of Example 12): more readily than uninduced S. griseolus PH2001; Shoot Fresh Weight (mean of five plants) ([2]; 4 g ai/ha, Pretreatment A (Streptomyces griseolus ATCC11796)): 1.16 grams; Shoot Fresh Weight (mean of five plants) ([2]; 4 g ai/ha, Pretreatment B (Streptomyces lividans pCAO200)): 0.73 grams; Shoot Fresh Weight (mean of five plants) ([2]; 4 g ai/ha, Pretreatment C (S. lividans pCAO200#9SU1-FeS-B)): 0.88 grams; Shoot Fresh Weight (mean of five plants) ([2]; 4 g ai/ha, Pretreatment D (S. lividans pCAO200#12SU1)): 0.88 grams; Shoot Fresh Weight (mean of five plants) ([2]; 4 g ai/ha, Pretreatment E (water)): 2.00 grams; Shoot Fresh Weight (mean of five plants) ([2]; 8 g ai/ha, Pretreatment A (Streptomyces griseolus ATCC11796)): 0.58 grams; Shoot Fresh Weight (mean of five plants) ([2]; 8 g ai/ha, Pretreatment B (Streptomyces lividans pCAO200)): 0.69 grams; Shoot Fresh Weight (mean of five plants) ([2]; 8 g ai/ha, Pretreatment C (S. lividans pCAO200#9SU1-FeS-B)): 1.02 grams; Shoot Fresh Weight (mean of five plants) ([2]; 8 g ai/ha, Pretreatment D (S. lividans pCAO200#12SU1)): 0.75 grams; Shoot Fresh Weight (mean of five plants) ([2]; 8 g ai/ha, Pretreatment E (water)): 0.65 grams
COc1cc(Cl)nc(NC(=O)NS(=O)(=O)c2ccccc2C(=O)O)n1 [compound 10003, N-[(4-chloro-6-methoxy-pyrimidin-2-yol)aminocarbonyl]-2-carboxybenzenesulfonamide]																	6 µM	16 µM	24 µM	25 µM	
CCOC(=O)c1ccccc1S(=O)(=O)NC(=O)Nc1nc(Cl)cc(OC)n1 [compound 10001, N-[(4-chloro-6-methoxy-pyrimidin-2-yl)aminocarbonyl]-2-ethoxycarbonylbenzenesulfonamide]	0.88 grams	0.67 grams	1.63 grams	0.62 grams	1.67 grams	2-3 times greater	0.74 grams	0.47 grams	1.62 grams	0.82 grams	1.07 grams	0.21 grams	0.53 grams	1.24 grams	0.47 grams	0.46 grams	175 µM	108 µM	0 µM	0 µM	Percent Conversion [4]: 56%; Percent Conversion [5]: 0%; Shoot Fresh Weight (mean of five plants) ([2]; 125 g ai/ha, Pretreatment A (Streptomyces griseolus ATCC11796)): 0.49 grams; Shoot Fresh Weight (mean of five plants) ([2]; 125 g ai/ha, Pretreatment B (Streptomyces lividans pCAO200)): 0.38 grams; Shoot Fresh Weight (mean of five plants) ([2]; 125 g ai/ha, Pretreatment C (S. lividans pCAO200#9SU1-FeS-B)): 1.01 grams; Shoot Fresh Weight (mean of five plants) ([2]; 125 g ai/ha, Pretreatment D (S. lividans pCAO200#12SU1)): 0.35 grams; Shoot Fresh Weight (mean of five plants) ([2]; 125 g ai/ha, Pretreatment E (water)): 0.23 grams; Shoot Fresh Weight (mean of five plants) ([2]; 250 g ai/ha, Pretreatment A (Streptomyces griseolus ATCC11796)): 0.44 grams; Shoot Fresh Weight (mean of five plants) ([2]; 250 g ai/ha, Pretreatment B (Streptomyces lividans pCAO200)): 0.25 grams; Shoot Fresh Weight (mean of five plants) ([2]; 250 g ai/ha, Pretreatment C (S. lividans pCAO200#9SU1-FeS-B)): 0.55 grams; Shoot Fresh Weight (mean of five plants) ([2]; 250 g ai/ha, Pretreatment D (S. lividans pCAO200#12SU1)): 0.26 grams; Shoot Fresh Weight (mean of five plants) ([2]; 250 g ai/ha, Pretreatment E (water)): 0.21 grams
